Earlier results as cited in US6440942B1, “14-membered macrolides derived from leucomycins” (Enanta Pharmaceuticals, Inc., priority 2000, dated 2002).
Like-named read-outs stand apart in the source and are kept apart here.

Legend:
[1] = for in vitro potency relative to the parent compound: main metabolites of rokitamycin, parent compound = rokitamycin; for antimicrobial activity: josamycin metabolites isolated from urine and plasma of adults given oral josamycin
[2] = dogs; compared with other 4″-O-butyryl derivatives
[3] = monkeys; compared with other 4″-O-butyryl derivatives

4″-debutyryl leucomycin A5 [leucomycin V]
in vitro potency relative to the parent compound [1]: one-tenth

5-hydroxyjosamycin
antimicrobial activity [1]: poor

CCC(=O)O[C@H]1[C@H](C)O[C@@H](O[C@H]2[C@H](N(C)C)[C@@H](O)[C@H](O[C@H]3[C@@H](CC=O)C[C@@H](C)[C@@H](O)/C=C/C=C/C[C@@H](C)OC(=O)C[C@@H](O)[C@@H]3OC)O[C@@H]2C)C[C@@]1(C)O [Leucomycin A7]
in vitro potency relative to the parent compound [1]: one-half

COC1C(O)CC(=O)OC(C)CC=CC=CC(=O)C(C)CC(CC=O)C1OC1OC(C)C(OC2CC(C)(O)C(OC(=O)CC(C)C)C(C)O2)C(N(C)C)C1O (stereo not drawn) [Niddamycin]
antibacterial activity in vitro (Gram-positive bacteria): good
antibacterial activity in vitro (Mycoplasma spp.): good

COC1C(OC(C)=O)CC(=O)OC(C)CC=CC=CC(O)C(C)CC(CC=O)C1OC1OC(C)C(OC2CC(C)(O)C(O)C(C)O2)C(N(C)C)C1O (stereo not drawn) [desisovaleryl josamycin]
antimicrobial activity [1]: inactive

CCCC(=O)O[C@H]1[C@H](C)O[C@@H](O[C@H]2[C@H](N(C)C)[C@@H](O)[C@H](O[C@H]3[C@@H](CC=O)C[C@@H](C)[C@@H](O)/C=C/C=C/C[C@@H](C)OC(=O)C[C@@H](O)[C@@H]3OC)O[C@@H]2C)C[C@@]1(C)OC(=O)CC [rokitamycin, 3″-O-propionyl leucomycin A5]
serum levels [2]: highest
activity among 4″-O-butyryl derivatives ([1]; compared with other 3″-O-acyl leucomycin A5 derivatives): most active
serum levels [3]: highest
in vitro activity against Gram-negative bacteria relative to leucomycin A5, josamycin and midecamycin (Gram-negative bacteria): twice as high

demycarosyl josamycin
antimicrobial activity [1]: inactive

β-hydroxyisovaleryl josamycin
antimicrobial activity [1]: poor
